Measured values reported in patent US8008288B2, “Anti-inflammatory A-aminocyclolactam compounds” (Cambridge Enterprise Limited, priority 2004, dated 2011).

Tests used:
[1] = test system: MCP-1 induced leukocyte migration (THP-1 cells); experiment: Inhibition of chemokine (MCP-1) induced leukocyte migration in vitro, transwell assay; type: cell-based, human
Method: In principle, this assay consists of two chambers separated by a porous membrane. The chemoattractant is placed in the lower compartment and the cells are placed in the upper compartment. After incubation for a period at 37° C. the cells move towards the chemoattractant, and the number of cells in the lower compartment is proportional to the chemoattractant activity (relative to a series of controls).
This assay can be used with a range of different leukocyte populations. For example, freshly prepared human peripheral blood leukocytes may used. Alternatively, leukocyte subsets may be prepared, including polymorphonuclear cells or lymphocytes or monocytes using methods well known to those skilled in the art such as density gradient centrifugation or magnetic bead separations. Alternatively; immortal cell lines which have been extensively validated as models of human peripheral blood leukocytes may be used, including, but not limited to THP-1 cells as a model of monocytes or Jurkat cells as model of naïve T cells.
The THP-1 cell line (European Cell culture Collection) were used as the leukocyte cell population.
The following procedure is used for testing the invention compounds for MCP-1 induced leukocyte migration:
First, the cell suspension to be placed in the upper compartment is prepared. […]

[2] = type: in vitro ADME, human
From the text: As an approach to identifying such stable analogs, various derivatives of (S)-3-(undec-10-enoyl)-aminoglutarimide have been tested for their stability in serum.

[3] = cited from earlier work

## O=C1NCCCC[C@@H]1NC(=O)C12CC3CC(CC(C3)C1)C2 [(S)-3-(adamantane-1-carbonylamino)azepin-2-one]
[1]; in vitro
  potency in vitro as broad-spectrum chemokine inhibitor (BSCI): sub-nanomolar

## C=CCCCCCCCCC(=O)[C@@H]1CCCNC1=O [(S)-3-(undec-10-enoyl)-tetrahydropyridin-2-one]
[1]; parental molecule (S)-3-(undec-10-enoyl)-aminoglutarimide
  potency compared with the parental molecule: considerably reduced potency
[2]; human, 7 days
  stability in human serum: at least 7 days

## C=CCCCCCCCCC(=O)N[C@H]1CCC(=O)NC1=O [NR58,4, (S)-3-(undec-10-enoyl)-aminoglutarimide]
[2]
  enzymatic ring opening of the aminoglutarimide ring in serum: susceptible to enzymatic ring opening in serum

## c(DCys-DGln-DIle-DTrp-DLys-DGln-DLys-DPro-DAsp-DLeu-DCys)-NH2 [NR58-3.14.3]
[3]; after intravenous injection
  half-life period of clearance from blood plasma: less than 30 minutes
[3]; in vivo, po
  oral bioavailability: not orally bioavailable
